Values of other authors in patent US20230330238A1, “CHIMERIC CONJUGATES FOR DEGRADATION OF VIRAL AND HOST PROTEINS AND METHODS OF USE” (Dana-Farber Cancer Institute, Inc., priority 2020, published 2023).

Details: FIG. 8A, identical to FIG. 1C in Bernal F., et al. 2007; cited from earlier work

For LSQETF(R8)DLWKLL(S5)EN [SAH-p53-4], the “α-helical stabilization (helicity by circular dichroism)” value is listed as “more stable than SAH-p53-1-3”.
